From ChEMBL document CHEMBL1201862, “PubChem BioAssay data set” (2004)
The source made the active and inactive calls.

Assays:
CAAX prenyl protease 2 [1] = target: T1, CAAX prenyl protease 2 (Homo sapiens, UniProt Q9Y256); test: inhibition of Ras-converting CAAX protease Rce1 – biochemical, yeast membranes, quenched-peptide fluorescence, cherry-pick, dose response (AID 588849)
T1 sequence (Q9Y256 whole entry): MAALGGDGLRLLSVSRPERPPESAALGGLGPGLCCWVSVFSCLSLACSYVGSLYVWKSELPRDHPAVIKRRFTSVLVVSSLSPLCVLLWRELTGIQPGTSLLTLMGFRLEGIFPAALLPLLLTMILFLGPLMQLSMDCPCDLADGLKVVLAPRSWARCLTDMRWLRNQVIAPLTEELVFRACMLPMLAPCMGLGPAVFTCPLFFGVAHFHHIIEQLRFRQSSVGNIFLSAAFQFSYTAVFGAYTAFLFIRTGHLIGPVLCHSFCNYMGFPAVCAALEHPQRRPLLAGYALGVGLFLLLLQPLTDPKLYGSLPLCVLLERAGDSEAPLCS

[2] = target: Glyceraldehyde-3-phosphate dehydrogenase (Homo sapiens, UniProt P04406)
[3] = target: Alkaline phosphatase, placental type (Homo sapiens, UniProt P05187); test: human placental alkaline phosphatase inhibition – biochemical, luminescence, confirmation (AID 1512); type: functional
[4] = target: T2, Alkaline phosphatase, tissue-nonspecific isozyme (Homo sapiens, UniProt P05186); test: potency against alkaline phosphatase TNAP – biochemical, luminescent, dose response, SAR follow-up (AID 1056)
T2 sequence (P05186 whole entry): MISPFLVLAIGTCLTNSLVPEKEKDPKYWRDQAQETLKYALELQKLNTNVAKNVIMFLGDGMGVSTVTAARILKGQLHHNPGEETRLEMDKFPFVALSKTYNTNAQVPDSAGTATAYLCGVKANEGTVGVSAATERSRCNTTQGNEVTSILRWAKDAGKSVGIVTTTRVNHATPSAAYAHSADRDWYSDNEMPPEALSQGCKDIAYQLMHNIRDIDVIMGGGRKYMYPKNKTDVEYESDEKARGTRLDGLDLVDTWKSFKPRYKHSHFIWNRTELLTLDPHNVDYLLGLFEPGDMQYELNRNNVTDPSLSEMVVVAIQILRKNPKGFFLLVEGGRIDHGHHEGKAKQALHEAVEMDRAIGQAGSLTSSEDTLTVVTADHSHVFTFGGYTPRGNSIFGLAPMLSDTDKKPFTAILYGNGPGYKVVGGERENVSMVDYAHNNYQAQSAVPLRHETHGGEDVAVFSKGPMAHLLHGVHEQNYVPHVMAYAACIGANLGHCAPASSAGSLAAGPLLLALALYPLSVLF

Bcl-2-related protein A1 = target: T3, Bcl-2-related protein A1 (Mus musculus, UniProt Q07440); type: functional;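 note: confirmatory dose–response counterscreen on Bfl-1, used to check hits from a UBC13 polyubiquitin inhibitor campaign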
T3 sequence (Q07440 whole entry): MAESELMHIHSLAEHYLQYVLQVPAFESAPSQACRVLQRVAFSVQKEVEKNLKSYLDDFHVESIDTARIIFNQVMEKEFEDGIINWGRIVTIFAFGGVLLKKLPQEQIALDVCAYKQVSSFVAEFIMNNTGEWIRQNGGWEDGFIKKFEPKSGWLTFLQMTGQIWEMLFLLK

[5] = target: T4, Ubiquitin-conjugating enzyme E2 N (Homo sapiens, UniProt P61088); type: functional
T4 sequence (P61088 whole entry): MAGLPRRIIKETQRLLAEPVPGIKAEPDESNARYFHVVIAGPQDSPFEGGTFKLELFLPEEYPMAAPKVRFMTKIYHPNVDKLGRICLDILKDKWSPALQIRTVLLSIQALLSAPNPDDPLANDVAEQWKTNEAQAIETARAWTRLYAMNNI

[6] = target: T4, Ubiquitin-conjugating enzyme E2 N; type: functional; remark: listed apart in the source
[7] = target: G-protein coupled receptor 35 (Homo sapiens, UniProt Q9HC97); test: inhibition of zaprinast-stimulated GPR35 beta-arrestin translocation – imaging, U2OS, beta-arrestin-GFP, zaprinast agonist, primary screen (AID 2058); type: functional;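 note: antagonist potency meaning inhibition of agonist-induced arrestin redistribution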
[8] = tested on: Streptococcus sp. 'group A'; test: Streptococcus pyogenes SK(-)GAS viability under kanamycin – luminescence, BacTiterGlo, confirmation, counter-screen for streptokinase expression inhibitor project, dose response (AID 1900); type: functional, organism-based
Streptokinase A = target: T5, Streptokinase A (Streptococcus pyogenes serotype M1, UniProt P10520); test: viability-normalized secreted streptokinase activity reduction – plasminogen activation absorbance, OD405, dose response (AID 1914); type: functional, Streptococcus pyogenes M1 GAS;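 note: secreted streptokinase activity via plasminogen activation per viability signal from cell pellet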
T5 sequence (P10520 whole entry): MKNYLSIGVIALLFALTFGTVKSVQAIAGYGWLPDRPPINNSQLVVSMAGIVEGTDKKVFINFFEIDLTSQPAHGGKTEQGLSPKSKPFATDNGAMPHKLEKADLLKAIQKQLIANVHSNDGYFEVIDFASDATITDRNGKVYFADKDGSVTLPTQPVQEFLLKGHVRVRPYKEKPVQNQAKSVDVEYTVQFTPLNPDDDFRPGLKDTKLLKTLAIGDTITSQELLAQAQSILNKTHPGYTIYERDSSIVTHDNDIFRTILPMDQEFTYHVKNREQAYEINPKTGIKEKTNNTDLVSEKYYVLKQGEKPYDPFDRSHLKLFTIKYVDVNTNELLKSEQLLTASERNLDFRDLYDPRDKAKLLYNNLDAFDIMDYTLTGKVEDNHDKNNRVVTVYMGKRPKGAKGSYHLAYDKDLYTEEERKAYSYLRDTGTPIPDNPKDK

Large T antigen = Large T antigen (Simian virus 40, UniProt P03070); type: functional, Betapolyomavirus macacae;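 note: Confirmatory-stage PubChem screen for compounds that inhibit SV40 T antigen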
[9] = target: T6, Bifunctional protein GlmU (Mycobacterium tuberculosis, UniProt P9WMN3); test: Inhibitors of Mycobacterial Glucosamine-1-phosphate acetyl transferase (GlmU). Secondary screen.; set-up: species or system Mycobacterium tuberculosis H37Rv
T6 sequence (P9WMN3 whole entry): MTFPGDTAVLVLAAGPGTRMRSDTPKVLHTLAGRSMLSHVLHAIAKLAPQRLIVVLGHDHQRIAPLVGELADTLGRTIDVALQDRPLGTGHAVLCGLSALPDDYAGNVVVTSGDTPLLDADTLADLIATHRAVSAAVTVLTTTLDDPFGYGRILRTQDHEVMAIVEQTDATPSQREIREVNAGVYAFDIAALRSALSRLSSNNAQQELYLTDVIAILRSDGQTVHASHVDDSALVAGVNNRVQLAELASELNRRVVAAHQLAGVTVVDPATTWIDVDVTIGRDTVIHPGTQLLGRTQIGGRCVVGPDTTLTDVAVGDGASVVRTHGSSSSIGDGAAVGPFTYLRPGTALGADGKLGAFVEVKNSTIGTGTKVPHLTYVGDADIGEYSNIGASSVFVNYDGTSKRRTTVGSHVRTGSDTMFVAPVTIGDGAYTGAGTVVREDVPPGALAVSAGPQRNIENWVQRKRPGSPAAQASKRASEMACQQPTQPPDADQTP

[10] = target: Induced myeloid leukemia cell differentiation protein Mcl-1 (Homo sapiens, UniProt Q07820); type: functional
Streptococcus = test: GAS UMAA2166 growth inhibition – luminescence, BacTiterGlo, counter-screen for streptokinase expression inhibitor project, dose response (AID 1915); type: functional, organism-based;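 note: potency for reduction of bacterial viability or growth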
[11] = target: Dual specificity tyrosine-phosphorylation-regulated kinase 1A (Rattus norvegicus, UniProt Q63470); type: biochemical, Homo sapiens
[12] = target: 26S proteasome non-ATPase regulatory subunit 14 (Homo sapiens, UniProt O00487); test: inhibition of proteasome subunit RPN11 – biochemical, fluorescence polarization, uHTS hits, confirmation (AID 602368); type: functional
[13] = target: 72 kDa type IV collagenase (Homo sapiens, UniProt P08253); test: Dose Response validation of uHTS RPN11 inhibitor hits using a MMP-2 Fluorescence assay.; type: functional
Prothrombin = Prothrombin (Bos taurus, UniProt P00735); test: thrombin protease inhibitors – biochemical, fluorescence polarization, uHTS hits, dose response (AID 602369); type: functional
CAAX prenyl protease 2 [14] = target: T7, CAAX prenyl protease 2 (Saccharomyces cerevisiae S288c, UniProt Q03530); type: biochemical
T7 sequence (Q03530 whole entry): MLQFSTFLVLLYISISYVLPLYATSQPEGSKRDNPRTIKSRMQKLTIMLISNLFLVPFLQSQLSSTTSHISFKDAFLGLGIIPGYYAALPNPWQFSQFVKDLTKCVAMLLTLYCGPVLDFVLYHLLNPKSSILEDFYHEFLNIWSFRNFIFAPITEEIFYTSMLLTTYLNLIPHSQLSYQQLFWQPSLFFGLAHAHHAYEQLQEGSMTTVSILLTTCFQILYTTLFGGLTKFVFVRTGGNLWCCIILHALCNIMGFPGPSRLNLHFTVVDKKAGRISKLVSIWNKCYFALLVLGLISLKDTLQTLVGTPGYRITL

[15] = HIV-1 Vif–A3G interaction blockers – biochemical, TR-FRET, GST-Vif 1-94, biotin-A3G peptide, dose response retest, primary screen (AID 1117319); type: functional;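 note: TR-FRET signal of purified GST-Vif binding a biotinylated A3G peptide; inhibitors lower the FRET signal by blocking Vif and A3G binding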
[16] = viability loss in Vero cells – cytotoxicity control for Vif-APOBEC3G degradation inhibitor project, dose response (AID 1117358); type: functional; details: Vero

Sequence of Alkaline phosphatase, placental type (P05187 whole entry): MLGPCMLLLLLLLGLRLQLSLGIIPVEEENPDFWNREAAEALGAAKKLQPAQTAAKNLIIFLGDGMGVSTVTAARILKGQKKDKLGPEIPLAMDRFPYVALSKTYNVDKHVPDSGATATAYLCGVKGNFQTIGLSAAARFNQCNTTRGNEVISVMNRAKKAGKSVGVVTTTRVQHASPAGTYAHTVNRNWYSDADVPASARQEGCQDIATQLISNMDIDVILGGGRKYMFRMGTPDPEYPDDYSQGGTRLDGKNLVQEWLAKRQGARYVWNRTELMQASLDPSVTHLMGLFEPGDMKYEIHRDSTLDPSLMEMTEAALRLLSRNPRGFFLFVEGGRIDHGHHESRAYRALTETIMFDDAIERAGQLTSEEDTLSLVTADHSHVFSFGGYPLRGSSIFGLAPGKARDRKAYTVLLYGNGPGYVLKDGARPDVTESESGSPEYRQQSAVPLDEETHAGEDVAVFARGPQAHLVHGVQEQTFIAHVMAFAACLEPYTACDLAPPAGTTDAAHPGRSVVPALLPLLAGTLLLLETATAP
Sequence of Glyceraldehyde-3-phosphate dehydrogenase (P04406 whole entry): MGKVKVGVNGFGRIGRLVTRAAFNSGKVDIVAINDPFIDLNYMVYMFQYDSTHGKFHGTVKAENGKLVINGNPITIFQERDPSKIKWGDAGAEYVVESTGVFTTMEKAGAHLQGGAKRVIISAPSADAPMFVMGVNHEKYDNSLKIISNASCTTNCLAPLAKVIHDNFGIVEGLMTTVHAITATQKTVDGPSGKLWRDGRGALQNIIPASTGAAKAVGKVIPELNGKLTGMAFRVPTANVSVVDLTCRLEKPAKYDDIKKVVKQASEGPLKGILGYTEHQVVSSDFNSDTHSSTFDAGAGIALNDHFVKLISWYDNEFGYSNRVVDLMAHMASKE
Sequence of 26S proteasome non-ATPase regulatory subunit 14 (O00487 whole entry): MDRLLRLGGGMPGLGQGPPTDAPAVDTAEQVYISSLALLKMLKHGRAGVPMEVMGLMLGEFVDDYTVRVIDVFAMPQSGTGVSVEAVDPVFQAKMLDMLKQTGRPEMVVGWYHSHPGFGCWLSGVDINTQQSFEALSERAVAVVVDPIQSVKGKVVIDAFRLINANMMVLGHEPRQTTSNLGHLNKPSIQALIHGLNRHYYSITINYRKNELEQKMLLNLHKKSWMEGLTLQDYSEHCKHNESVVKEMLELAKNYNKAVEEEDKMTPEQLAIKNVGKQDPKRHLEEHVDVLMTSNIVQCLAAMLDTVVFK
Sequence of Large T antigen (P03070 whole entry): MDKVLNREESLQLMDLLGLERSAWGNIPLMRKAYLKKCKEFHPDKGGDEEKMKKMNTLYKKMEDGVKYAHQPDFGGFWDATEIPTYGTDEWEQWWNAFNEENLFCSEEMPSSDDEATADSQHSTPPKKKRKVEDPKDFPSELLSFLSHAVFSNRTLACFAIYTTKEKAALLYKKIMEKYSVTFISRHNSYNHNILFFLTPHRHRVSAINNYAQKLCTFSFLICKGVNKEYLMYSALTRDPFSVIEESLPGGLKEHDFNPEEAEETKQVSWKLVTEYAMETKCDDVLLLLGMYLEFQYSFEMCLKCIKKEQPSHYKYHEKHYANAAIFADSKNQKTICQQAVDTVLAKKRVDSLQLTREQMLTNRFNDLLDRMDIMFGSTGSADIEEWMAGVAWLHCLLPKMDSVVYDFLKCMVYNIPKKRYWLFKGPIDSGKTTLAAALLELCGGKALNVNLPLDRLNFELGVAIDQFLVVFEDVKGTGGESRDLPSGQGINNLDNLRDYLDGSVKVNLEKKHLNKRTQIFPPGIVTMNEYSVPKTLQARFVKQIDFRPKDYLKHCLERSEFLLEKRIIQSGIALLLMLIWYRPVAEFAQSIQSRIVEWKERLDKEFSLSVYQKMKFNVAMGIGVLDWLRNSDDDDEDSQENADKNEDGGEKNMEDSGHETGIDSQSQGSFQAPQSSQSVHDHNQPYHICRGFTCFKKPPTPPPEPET
Sequence of 72 kDa type IV collagenase (P08253 whole entry): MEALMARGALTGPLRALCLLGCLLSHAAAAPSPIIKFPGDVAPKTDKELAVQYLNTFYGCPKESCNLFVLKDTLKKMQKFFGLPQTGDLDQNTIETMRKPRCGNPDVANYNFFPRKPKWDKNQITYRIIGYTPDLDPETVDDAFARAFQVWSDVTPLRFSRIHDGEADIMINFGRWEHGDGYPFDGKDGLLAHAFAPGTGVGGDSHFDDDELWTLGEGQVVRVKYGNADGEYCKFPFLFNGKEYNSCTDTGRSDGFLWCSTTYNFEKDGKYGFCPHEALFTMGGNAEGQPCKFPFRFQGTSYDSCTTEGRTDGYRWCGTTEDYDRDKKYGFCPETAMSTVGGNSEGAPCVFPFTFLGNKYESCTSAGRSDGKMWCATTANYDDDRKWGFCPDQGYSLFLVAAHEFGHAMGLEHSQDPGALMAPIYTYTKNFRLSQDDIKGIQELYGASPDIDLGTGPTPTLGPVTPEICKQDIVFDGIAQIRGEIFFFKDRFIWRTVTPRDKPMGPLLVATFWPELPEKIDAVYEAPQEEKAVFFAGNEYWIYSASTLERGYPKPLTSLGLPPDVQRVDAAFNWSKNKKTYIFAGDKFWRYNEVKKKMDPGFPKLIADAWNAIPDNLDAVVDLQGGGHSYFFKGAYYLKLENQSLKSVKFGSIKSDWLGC
Sequence of Induced myeloid leukemia cell differentiation protein Mcl-1 (Q07820 whole entry): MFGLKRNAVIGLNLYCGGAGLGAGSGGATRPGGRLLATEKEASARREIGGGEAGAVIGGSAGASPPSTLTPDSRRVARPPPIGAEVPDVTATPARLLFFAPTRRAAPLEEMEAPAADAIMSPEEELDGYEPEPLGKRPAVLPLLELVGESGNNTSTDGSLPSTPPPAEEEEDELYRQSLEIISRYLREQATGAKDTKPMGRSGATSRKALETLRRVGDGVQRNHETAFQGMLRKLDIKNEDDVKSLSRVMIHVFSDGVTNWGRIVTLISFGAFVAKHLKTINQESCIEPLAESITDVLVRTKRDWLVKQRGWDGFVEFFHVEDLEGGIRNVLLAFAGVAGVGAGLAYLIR
Sequence of G-protein coupled receptor 35 (Q9HC97 whole entry): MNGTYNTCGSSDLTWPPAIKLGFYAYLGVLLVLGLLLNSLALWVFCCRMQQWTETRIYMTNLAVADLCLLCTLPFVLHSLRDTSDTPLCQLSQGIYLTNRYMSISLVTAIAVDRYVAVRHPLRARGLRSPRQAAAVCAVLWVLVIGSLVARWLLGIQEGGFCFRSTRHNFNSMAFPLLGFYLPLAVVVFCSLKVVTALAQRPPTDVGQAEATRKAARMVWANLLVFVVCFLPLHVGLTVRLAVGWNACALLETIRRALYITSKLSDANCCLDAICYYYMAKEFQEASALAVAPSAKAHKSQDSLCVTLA

CCSc1nc(O)c2c(n1)N=C1CC(C)(C)CC(O)=C1C2c1ccccn1 (stereo unspecified)
AC50 (CAAX prenyl protease 2 [1]): 9.79 µM (active)

COc1ccc(Cc2nc3c4cnn(C)c4ncn3n2)cc1
IC50 [2]: > 100 µM (not active)
IC50 [3]: > 100 µM (inactive)
IC50 [4]: > 100 µM (inactive)

O=C1C(Cc2cnc[nH]2)NC(=S)N1c1ccccc1 (stereo unspecified)
IC50 (Bcl-2-related protein A1): > 20 µM (inactive)
IC50 [5]: 8.14 µM (active)
IC50 [6]: 4 µM (active)

Cc1cc(SCC(=O)NC(=O)c2cccn2C)nc2ccccc12
IC50 (Bcl-2-related protein A1): > 20 µM (inactive)
IC50 [5]: 17.4 µM (active)
IC50 [6]: > 20 µM (inactive)

N=C1/C(=C\c2ccc(-c3cccc(C(=O)O)c3)o2)C(=O)N=C2SC=C(c3ccccc3)N12
IC50 [7]: 2.29 µM (active)
EC50 [8]: 0.743 µM (active)
EC50 (Streptokinase A): > 150 µM (not active)
IC50 (Large T antigen): 92.2 µM (active)
IC50 [9]: 129 µM (active)
IC50 [10]: 1.55 µM (active)
EC50 (Streptococcus): 8.79 µM (active)
AC50 [11]: 2.19 µM (active)
IC50 [12]: 7.84 µM (active)
IC50 [13]: 9.07 µM (active)
IC50 (Prothrombin): 15.8 µM (active)

Cc1ccc(C)c(S(=O)(=O)c2c[nH]c(=S)[nH]c2=O)c1
IC50 (Bcl-2-related protein A1): > 20 µM (inactive)
IC50 [5]: 14.3 µM (active)
IC50 [6]: > 20 µM (inactive)

CC(=O)Oc1ccc(C(=O)Nc2ccc(S(=O)(=O)NCC3CCCO3)cc2)cc1 (stereo unspecified)
AC50 (CAAX prenyl protease 2 [14]): 68.7 µM (active)

CCn1nc(C)c(/C=N/NC(=O)c2ccc3c(c2)c(C)c(C)n3Cc2ccccc2)c1C
IC50 [3]: > 100 µM (inactive)

CC(C)c1c(C(=O)N/N=C/c2ccsc2)nnn1-c1nonc1N
AC50 (CAAX prenyl protease 2 [14]): 0.343 µM (active)

COc1ccc(OC)c(S(=O)(=O)Nc2cnc3ccccc3c2)c1
IC50 [2]: > 100 µM (not active)
IC50 [3]: > 100 µM (inactive)
IC50 [15]: > 100 µM (active)
CC50 [16]: > 40 µM (active)
